We go through four compounds from patent US20240423995A1, “C-KIT INHIBITORS AND USES FOR TREATING AND PREVENTING INFLAMMATORY CONDITIONS” (GEORGETOWN UNIVERSITY, priority 2023, published 2024).

The target in one experiment is T1, KIT (V559D, V654A) (Homo sapiens, UniProt P10721, V559D/V654A).
T1 construct: purchased Eurofins DiscoverX Corporation
The experiment in a line: KINOMEscan competition binding screen, KIT (V559D, V654A). The conditions noted are these: for remaining binding at 10 µM: read-out: % Ctrl @ 10 μM. How it is done:
(§1) The KINOMEscan™ screening platform (Eurofins DiscoverX Corporation, San Diego, USA) was performed using an active site-directed competition binding assay to quantitatively measure interactions between BK40143, BK40197, BK40195, and BK40196 and more than 450 human kinases and disease relevant mutant variants. […] Screening “hits” were identified by measuring the amount of kinase captured in test (BK40143, BK40197, BK40195, and BK40196) versus control samples by using a quantitative and ultra-sensitive qPCR method that detects the associated DNA label. BK40143, BK40197, BK40195, and BK40196 were screened at 10 μM concentration, and results for primary screen binding interactions were reported as ‘% Ctrl’ (POC), where lower numbers indicate stronger hits and calculated as follows:
(§2) [formula] • test compound=BK40143 or BK40197 or BK40195 or BK40196 • negative control=DMSO (100% Ctrl) • positive control=control compound (0% Ctrl)
(§3) Based on screening data of profiled compounds, a proportional relationship between primary screening results and corresponding compound/target affinities can be described as binding constants (Kd values) for the indicated ranges of percent of control (PoC) values, with tighter binding (higher affinity) interactions associated with lower PoC values, and weaker binding (lower affinity) associated with higher PoC values. Briefly, kinase-tagged T7 phage strains were grown in parallel in 24-well blocks in an E. coli host derived from the BL21 strain. E. coli were grown to log-phase and infected with T7 phage from a frozen stock (multiplicity of infection=0.4) and incubated with shaking at 32° C. until lysis (90-150 minutes). The lysates were centrifuged (6,000×g) and filtered ([…]) to remove cell debris. The remaining kinases were produced in HEK-293 cells and subsequently tagged with DNA for qPCR detection. Streptavidin-coated magnetic beads were treated with biotinylated small molecule ligands for 30 minutes at room temperature to generate affinity resins for kinase assays. The liganded beads were blocked with excess biotin and washed with blocking buffer (SeaBlock (Pierce), 1% BSA, 0.05% Tween 20, 1 mM DTT) to remove unbound ligand and to reduce non-specific phage binding. Binding reactions were assembled by combining kinases, liganded affinity beads, and test compounds in 1× binding buffer (20% SeaBlock, 0.17×PBS, 0.05% Tween 20, 6 mM DTT). Test compounds were prepared as 100× stocks in 100% DMSO and directly diluted into the assay. All reactions were performed in polypropylene 384-well plates in a final volume of 0.02 ml. The assay plates were incubated at room temperature with shaking for 1 hour and the affinity beads were washed with wash buffer (1×PBS, 0.05% Tween 20). The beads were then re-suspended in elution buffer (1×PBS, 0.05% Tween 20, 0.5 μM non-biotinylated affinity ligand) and incubated at room temperature with shaking for 30 minutes. The kinase concentration in the eluates was measured by qPCR.

A further experiment concerns the target T2, SYK (Homo sapiens, UniProt P43405).
T2 construct: purchased Eurofins DiscoverX Corporation
Nature of the experiment: KINOMEscan competition binding screen, SYK. The conditions noted are these: for remaining binding at 10 µM: read-out: % Ctrl @ 10 μM. How it is done:
as §1, §2, §3

A further experiment addresses T3, c-kit (Homo sapiens, UniProt P10721).
T3 construct: purchased Luceome Biotechnologies, LLC
Nature of the experiment: KINASESEEKER competition binding assay, c-kit. Conditions: minimum 8-point curve, duplicate. Here is the method: Kinase assays were performed using KINASESEEKER™ (Luceome Biotechnologies, LLC; Tucson, AZ). KINASESEEKER™ is a homogeneous competition binding assay in which the displacement of an active site-dependent probe by an inhibitor is measured by a change in luminescence signal. Luminescence readout translates into a highly sensitive and robust assay with low background and minimal interference from test compounds. See J. Am. Chem. Soc., 2010, 132, 11727-11735.
Stock solutions of compounds were serially diluted in DMSO to make assay stocks. Prior to initiating IC50 determination, the test compounds were evaluated for false positives against split-luciferase. The compounds were screened against kinases at a minimum of 8 different concentrations in duplicate. For kinase assays, a 24 μL aliquot of lysate containing Cfluc-kinase and Fos-Nfluc was incubated for 2 hours with either 1 μL of DMSO (for no-inhibitor control) or compound solution in DMSO in presence of a kinase specific probe. 80 μL of luciferin assay reagent was added to each solution and luminescence was immediately measured on a luminometer.
The % Inhibition and % Activity Remaining was calculated using the following equation: […]
The % Activity Remaining was plotted against compound concentration and the IC50 was determined for each compound using a minimum 8-point curve.

For another experiment, the target named is T4, KIT (A829P) (Homo sapiens, UniProt P10721, A829P).
T4 construct: purchased Eurofins DiscoverX Corporation
T4 sequence (P10721 26-976 A829P): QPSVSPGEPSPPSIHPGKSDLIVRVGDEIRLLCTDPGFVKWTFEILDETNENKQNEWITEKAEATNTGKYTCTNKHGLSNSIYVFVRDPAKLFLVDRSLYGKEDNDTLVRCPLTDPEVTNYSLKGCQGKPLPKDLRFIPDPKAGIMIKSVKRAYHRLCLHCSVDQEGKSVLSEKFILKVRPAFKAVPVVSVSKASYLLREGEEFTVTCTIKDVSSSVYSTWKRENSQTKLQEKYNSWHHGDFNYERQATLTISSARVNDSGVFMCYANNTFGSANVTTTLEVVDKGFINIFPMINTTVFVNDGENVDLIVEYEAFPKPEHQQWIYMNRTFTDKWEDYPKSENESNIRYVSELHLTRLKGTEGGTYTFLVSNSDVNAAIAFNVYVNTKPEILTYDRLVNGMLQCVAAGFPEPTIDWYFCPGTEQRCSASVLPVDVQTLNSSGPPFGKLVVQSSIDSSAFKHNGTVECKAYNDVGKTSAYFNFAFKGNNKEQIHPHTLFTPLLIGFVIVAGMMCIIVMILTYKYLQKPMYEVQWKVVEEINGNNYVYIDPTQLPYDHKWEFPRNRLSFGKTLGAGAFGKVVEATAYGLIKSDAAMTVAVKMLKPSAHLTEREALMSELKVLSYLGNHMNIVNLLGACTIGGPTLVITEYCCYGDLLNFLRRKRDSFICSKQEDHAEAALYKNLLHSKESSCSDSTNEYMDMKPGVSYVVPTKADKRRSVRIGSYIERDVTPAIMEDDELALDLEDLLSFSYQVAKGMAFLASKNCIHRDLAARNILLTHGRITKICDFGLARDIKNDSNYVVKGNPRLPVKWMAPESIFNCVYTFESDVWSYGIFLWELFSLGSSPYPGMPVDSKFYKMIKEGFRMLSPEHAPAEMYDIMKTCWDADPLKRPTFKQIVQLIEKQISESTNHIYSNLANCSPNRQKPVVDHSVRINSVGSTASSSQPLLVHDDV
Nature of the experiment: KINOMEscan competition binding screen, KIT (A829P). Conditions: for remaining binding at 10 µM: read-out: % Ctrl @ 10 μM. Here is the method: as §1, §2, §3

Another experiment deals with mast cells (blood). Nature of the experiment: MC maturation in blood of transgenic APP mice by flow cytometry. It is filed as in vivo. The conditions noted are these: six weeks, vs DMSO. How it is done:
12-month-old transgenic APP mice were injected intraperitoneally with either 5 mg/kg BK40143 or DMSO for six weeks before whole-blood samples were collected into tubes with 1000 U/mL heparin. Blood samples were then treated with the three flow-conjugated antibodies and analyzed for maturation of mast cell progenitors to mature mast cells, as described in Examples 3 and 4. Group differences were compared using an unpaired Student's t-test.
12-month-old transgenic APP mice were injected intraperitoneally with either 25 mg/kg BK40195 or DMSO for six weeks before having whole-blood samples collected into tubes containing 1000 U/mL heparin. Blood samples were then treated with the three flow-conjugated antibodies and analyzed for maturation of mast cell progenitors to mature mast cells, as described in Example 5. Differences were compared using an unpaired Student's t-test.
12-month-old transgenic APP mice were injected intraperitoneally with either 45 mg/kg BK40197 or DMSO for six weeks before having whole-blood samples collected into tubes containing 1000 U/mL heparin. Blood samples were then treated with the three flow-conjugated antibodies and analyzed for maturation of mast cell progenitors to mature mast cells, as described in Example 5. Differences were compared using an unpaired Student's t-test.
A general note: A flow cytometer gives signals particle by particle.

The target in the next experiment is T5, KIT (L576P) (Homo sapiens, UniProt P10721, L576P).
T5 construct: purchased Eurofins DiscoverX Corporation
T5 sequence (P10721 26-976 L576P): as the sequence (P10721 26-976 A829P) above, with L551P, P804A counted along it
Nature of the experiment: KINOMEscan competition binding screen, KIT (L576P). The conditions noted are these: for remaining binding at 10 µM: read-out: % Ctrl @ 10 μM. How it is done: as §1, §2, §3

T1 sequence (P10721 26-976 V559D/V654A): as the sequence (P10721 26-976 A829P) above, with V534D, V629A, P804A counted along it
T3 sequence (P10721 26-976): as the sequence (P10721 26-976 A829P) above, with P804A counted along it

The term inhibition denotes the drop in the measured response relative to a control, in per cent. The low end stands for a weak effect, the high end for a strong effect. What is called IC50 is the concentration needed to halve the response being measured. A low value points to higher potency. Regarding `Cc1cccc(-c2cc3nccc(Nc4ccccc4)c3s2)c1` [BK40143], the inhibition at 10 µM was determined as 82% at KIT (V559D, V654A); 94.5% on SYK; 48% at KIT (A829P); 96.5% at KIT (L576P). In addition, the remaining binding at 10 µM at KIT (V559D, V654A) turned out to be 18%; on SYK it was 5.5%; on KIT (A829P), 52%; at KIT (L576P) it was 3.5%. Further, the IC50 at c-kit worked out at 750 ± 110 nM. For the same compound, the “ratio of immature MCs (CD117 only) to mature MCs (CD117 and FceR1)” value (“ratio of immature MCs (CD117 only)” below) with mast cells (blood) (5 mg/kg intraperitoneal, p=0.03) was “significantly increased”.
For `COc1cccc(Nc2ccnc3cc(-c4cccc(C)c4)sc23)c1` [BK40195], the inhibition at 10 µM at KIT (V559D, V654A) was determined as 97.5%; at SYK, 88%; on KIT (A829P), 93.7%; at KIT (L576P) it was 91.9%. For the same compound, the remaining binding at 10 µM came to 2.5% on KIT (V559D, V654A); 12% on SYK; 6.3% at KIT (A829P); 8.1% at KIT (L576P). At c-kit, this compound showed an IC50 of 288 ± 23 nM. Moreover, the “ratio of immature MCs (CD117 only)” value with mast cells (blood) (25 mg/kg intraperitoneal, p=0.04) is reported as “significantly increased”.
As to `Cc1cccc(-c2cc3nccc(Nc4cccc(O)c4)c3s2)c1` [BK40196], the inhibition at 10 µM on KIT (V559D, V654A) was 98.7%; on SYK, 97.7%; at KIT (A829P) it was 79%; at KIT (L576P), 99.2%. In addition, the remaining binding at 10 µM on KIT (V559D, V654A) worked out at 1.3%; at SYK, 2.3%; on KIT (A829P) it was 21%; at KIT (L576P), 0.8%. The same compound registered an IC50 at c-kit of 276 ± 35 nM.
`Cc1cccc(-c2cc3nccc(N4CCOCC4)c3s2)c1` [BK40197]: the inhibition at 10 µM at KIT (V559D, V654A) turned out to be 79%; on SYK it was 56%; on KIT (A829P), 0%; on KIT (L576P), 98.2%. The remaining binding at 10 µM on KIT (V559D, V654A) came to 21%; on SYK, 44%; at KIT (A829P), 100%; at KIT (L576P) it was 1.8%. Moreover, in the experiment on mast cells (blood) (45 mg/kg intraperitoneal, p=0.07), the “ratio of immature MCs (CD117 only)” value is “significantly increased”.
